{"source": "ChEMBL document CHEMBL1221228", "about": "“Norselic acids A-E, highly oxidized anti-infective steroids that deter mesograzer predation, from the Antarctic sponge Crella sp” (2009)", "format_in_all_cases": "functional", "key": {"[1]": {"system": "Leishmania", "experiment": "Antileishmanial activity against Leishmania"}, "[2]": {"system": "Escherichia coli", "experiment": "Antimicrobial activity against Escherichia coli 442 at 1 unit after 18 hrs by agar diffusion method"}, "[3]": {"system": "Staphylococcus aureus", "experiment": "Antimicrobial activity against methicillin sensitive Staphylococcus aureus 375 at 1 unit after 18 hrs by agar diffusion method"}, "[4]": {"system": "Staphylococcus aureus", "experiment": "Antimicrobial activity against methicillin sensitive Staphylococcus aureus 375 assessed as hazy zone of inhibition at 1 unit after 18 hrs by agar diffusion method"}, "[5]": {"system": "Staphylococcus aureus", "experiment": "Antimicrobial activity against methicillin sensitive Staphylococcus aureus 310 at 1 unit after 18 hrs by agar diffusion method"}, "[6]": {"system": "Candida albicans", "experiment": "Antimicrobial activity against Candida albicans 54 at 1 unit after 18 hrs by agar diffusion method"}, "[7]": {"system": "Enterococcus faecium", "experiment": "Antimicrobial activity against vancomycin-resistant Enterococcus faecium 379 at 1 unit after 18 hrs by agar diffusion method"}, "[8]": {"system": "Escherichia coli", "experiment": "Antimicrobial activity against Escherichia coli 389 assessed as hazy zone of inhibition at 30 ug after 18 hrs by agar diffusion method", "settings": "Escherichia coli, 389, 18 h; read-out: IZ"}, "[9]": {"system": "Candida albicans", "experiment": "Antimicrobial activity against Candida albicans 54 at 30 ug after 18 hrs by agar diffusion method", "settings": "Candida albicans, 54, 18 h; read-out: IZ"}, "[10]": {"system": "Staphylococcus aureus", "experiment": "Antimicrobial activity against methicillin sensitive Staphylococcus aureus 375 at 30 ug after 18 hrs by agar diffusion method", "settings": "Staphylococcus aureus, 375, 18 h; read-out: IZ"}, "[11]": {"system": "Enterococcus faecium", "experiment": "Antimicrobial activity against vancomycin-resistant Enterococcus faecium 379 at 30 ug after 18 hrs by agar diffusion method", "settings": "Enterococcus faecium, 379, 18 h; read-out: IZ"}, "[12]": {"system": "Escherichia coli", "experiment": "Antimicrobial activity against Escherichia coli 389 at 30 ug after 18 hrs by agar diffusion method", "settings": "Escherichia coli, 389, 18 h; read-out: IZ"}, "[13]": {"system": "Staphylococcus aureus", "experiment": "Antimicrobial activity against methicillin sensitive Staphylococcus aureus 310 at 30 ug after 18 hrs by agar diffusion method", "settings": "Staphylococcus aureus, 310, 18 h; read-out: IZ"}, "[14]": {"system": "Candida albicans", "experiment": "Antimicrobial activity against Candida albicans 54 at 5 ug after 18 hrs by agar diffusion method", "settings": "Candida albicans, 54, 18 h; read-out: IZ"}, "[15]": {"system": "Escherichia coli", "experiment": "Antimicrobial activity against Escherichia coli 442 at 5 ug after 18 hrs by agar diffusion method", "settings": "Escherichia coli, 442, 18 h; read-out: IZ"}, "[16]": {"system": "Escherichia coli", "experiment": "Antimicrobial activity against Escherichia coli 389 at 5 ug after 18 hrs by agar diffusion method", "settings": "Escherichia coli, 389, 18 h; read-out: IZ"}, "[17]": {"system": "Escherichia coli", "experiment": "Antimicrobial activity against Escherichia coli 442 assessed as hazy zone of inhibition at 30 ug after 18 hrs by agar diffusion method", "settings": "Escherichia coli, 442, 18 h; read-out: IZ"}, "[18]": {"system": "Escherichia coli", "experiment": "Antimicrobial activity against Escherichia coli 442 at 30 ug after 18 hrs by agar diffusion method", "settings": "Escherichia coli, 442, 18 h; read-out: IZ"}, "[19]": {"system": "Staphylococcus aureus", "experiment": "Antimicrobial activity against methicillin-resistant Staphylococcus aureus 310 assessed as hazy zone of inhibition at 200 ug after 18 hrs by agar diffusion method", "settings": "Staphylococcus aureus, 310, 18 h; read-out: IZ"}, "[20]": {"system": "Enterococcus faecium", "experiment": "Antimicrobial activity against vancomycin-resistant Enterococcus faecium 379 assessed as hazy zone of inhibition at 200 ug after 18 hrs by agar diffusion method", "settings": "Enterococcus faecium, 379, 18 h; read-out: IZ"}, "[21]": {"system": "Escherichia coli", "experiment": "Antimicrobial activity against Escherichia coli 442 at 200 ug after 18 hrs by agar diffusion method", "settings": "Escherichia coli, 442, 18 h; read-out: IZ"}, "[22]": {"system": "Staphylococcus aureus", "experiment": "Antimicrobial activity against methicillin sensitive Staphylococcus aureus 375 assessed as very hazy zone of inhibition at 200 ug after 18 hrs by agar diffusion method", "settings": "Staphylococcus aureus, 375, 18 h; read-out: IZ"}, "[23]": {"system": "Escherichia coli", "experiment": "Antimicrobial activity against Escherichia coli 389 at 200 ug after 18 hrs by agar diffusion method", "settings": "Escherichia coli, 389, 18 h; read-out: IZ"}, "[24]": {"system": "Odontaster validus", "experiment": "Reduction of food intake in Odontaster validus assessed as rejection of food pellets after 72 hrs relative to control", "set-up": "scale not given: the % may be the effect or the level left"}, "[25]": {"system": "Candida albicans", "experiment": "Antimicrobial activity against Candida albicans 54 at 200 ug after 18 hrs by agar diffusion method", "settings": "Candida albicans, 54, 18 h; read-out: IZ"}}}
{"smiles": "C=C(C)[C@@](O)(CC)CC[C@@H](C)[C@H]1CC[C@H]2[C@@H]3CCC4=CC(=O)CC[C@]4(C)[C@H]3CC[C@]12C(=O)O", "note": "[NORSELIC ACID D]", "values": [{"measurement": "Activity", "setting": "[1]", "result": 2, "unit": "µM"}]}
{"smiles": "Cc1onc(-c2ccccc2)c1C(=O)N[C@@H]1C(=O)N2[C@@H]1SC(C)(C)[C@@H]2C(=O)O", "note": "[OXACILLIN]", "values": [{"measurement": "inhibition zone (IZ)", "setting": "[2]", "result": 0, "unit": "mm"}, {"measurement": "inhibition zone (IZ)", "setting": "[3]", "result": 18, "unit": "mm"}, {"measurement": "inhibition zone (IZ)", "setting": "[4]", "result": 22, "unit": "mm"}, {"measurement": "inhibition zone (IZ)", "setting": "[5]", "result": 0, "unit": "mm"}, {"measurement": "inhibition zone (IZ)", "setting": "[6]", "result": 0, "unit": "mm"}, {"measurement": "inhibition zone (IZ)", "setting": "[7]", "result": 0, "unit": "mm"}, {"measurement": "zone of inhibition at 30 µg/disc", "setting": "[8]", "result": 8, "unit": "mm"}]}
{"smiles": "C=C(C)[C@@](O)(CC)CC[C@@H](C)[C@H]1CC[C@H]2[C@@H]3CC[C@H]4CC(=O)C=C[C@]4(C)[C@H]3CC[C@]12C(=O)O", "note": "[NORSELIC ACID B]", "values": [{"measurement": "Activity", "setting": "[1]", "result": 2.4, "unit": "µM"}]}
{"smiles": "C=C(CC[C@@H](C)[C@H]1CC[C@H]2[C@@H]3CCC4=CC(=O)C=C[C@]4(C)[C@H]3CC[C@]12C(=O)O)C(C)C", "note": "[NORSELIC ACI C]", "values": [{"measurement": "Activity", "setting": "[1]", "result": 2.6, "unit": "µM"}]}
{"smiles": "NC[C@H]1O[C@H](O[C@H]2[C@H](O)[C@@H](O[C@H]3O[C@H](CO)[C@@H](O)[C@H](N)[C@H]3O)[C@H](N)C[C@@H]2N)[C@H](O)[C@@H](O)[C@@H]1O", "note": "[KANAMYCIN]", "values": [{"measurement": "zone of inhibition at 30 µg/disc", "setting": "[9]", "result": 0, "unit": "mm"}, {"measurement": "zone of inhibition at 30 µg/disc", "setting": "[10]", "result": 15, "unit": "mm"}, {"measurement": "zone of inhibition at 30 µg/disc", "setting": "[11]", "result": 10, "unit": "mm"}, {"measurement": "zone of inhibition at 30 µg/disc", "setting": "[12]", "result": 21, "unit": "mm"}, {"measurement": "zone of inhibition at 30 µg/disc", "setting": "[13]", "result": 0, "unit": "mm"}, {"measurement": "zone of inhibition at 30 µg/disc", "setting": "[8]", "result": 37, "unit": "mm"}]}
{"smiles": "CO[C@H]1/C=C/O[C@@]2(C)Oc3c(C)c(O)c4c(O)c(c(/C=N/N5CCN(C)CC5)c(O)c4c3C2=O)NC(=O)/C(C)=C\\C=C\\[C@H](C)[C@H](O)[C@@H](C)[C@@H](O)[C@@H](C)[C@H](OC(C)=O)[C@@H]1C", "note": "[RIFAMPIN]", "values": [{"measurement": "zone of inhibition at 5 µg/disc", "setting": "[14]", "result": 0, "unit": "mm"}, {"measurement": "zone of inhibition at 5 µg/disc", "setting": "[15]", "result": 6, "unit": "mm"}, {"measurement": "zone of inhibition at 5 µg/disc", "setting": "[16]", "result": 20, "unit": "mm"}]}
{"smiles": "CN[C@H](CC(C)C)C(=O)N[C@H]1C(=O)N[C@@H](CC(N)=O)C(=O)N[C@H]2C(=O)N[C@H]3C(=O)N[C@H](C(=O)N[C@H](C(=O)O)c4cc(O)cc(O)c4-c4cc3ccc4O)[C@H](O)c3ccc(c(Cl)c3)Oc3cc2cc(c3O[C@@H]2O[C@H](CO)[C@@H](O)[C@H](O)[C@H]2O[C@H]2C[C@](C)(N)[C@H](O)[C@H](C)O2)Oc2ccc(cc2Cl)[C@H]1O", "note": "[VANCOMYCIN]", "values": [{"measurement": "zone of inhibition at 30 µg/disc", "setting": "[9]", "result": 0, "unit": "mm"}, {"measurement": "zone of inhibition at 30 µg/disc", "setting": "[10]", "result": 19, "unit": "mm"}, {"measurement": "zone of inhibition at 30 µg/disc", "setting": "[11]", "result": 0, "unit": "mm"}, {"measurement": "zone of inhibition at 30 µg/disc", "setting": "[12]", "result": 17, "unit": "mm"}, {"measurement": "zone of inhibition at 30 µg/disc", "setting": "[13]", "result": 15, "unit": "mm"}, {"measurement": "zone of inhibition at 30 µg/disc", "setting": "[8]", "result": 25, "unit": "mm"}]}
{"smiles": "C=C(C)[C@@](CC)(CC[C@@H](C)[C@H]1CC[C@H]2[C@@H]3C=CC4=CC(=O)C=C[C@]4(C)[C@H]3CC[C@]12C(=O)O)OC(C)=O", "note": "[NORSELIC ACID E]", "values": [{"measurement": "Activity", "setting": "[1]", "result": 3.6, "unit": "µM"}]}
{"smiles": "CO[C@@]1(NC(=O)Cc2cccs2)C(=O)N2C(C(=O)O)=C(COC(N)=O)CS[C@@H]21", "note": "[CEFOXITIN]", "values": [{"measurement": "zone of inhibition at 30 µg/disc", "setting": "[17]", "result": 26, "unit": "mm"}, {"measurement": "zone of inhibition at 30 µg/disc", "setting": "[18]", "result": 18, "unit": "mm"}, {"measurement": "zone of inhibition at 30 µg/disc", "setting": "[9]", "result": 0, "unit": "mm"}, {"measurement": "zone of inhibition at 30 µg/disc", "setting": "[12]", "result": 22, "unit": "mm"}, {"measurement": "zone of inhibition at 30 µg/disc", "setting": "[8]", "result": 26, "unit": "mm"}]}
{"smiles": "C=C(C)[C@@](O)(CC)CC[C@@H](C)[C@H]1CC[C@H]2[C@@H]3C=CC4=CC(=O)C=C[C@]4(C)[C@H]3CC[C@]12C(=O)O", "note": "[NORSELIC ACID A]", "values": [{"measurement": "zone of inhibition at 200 µg/disc", "setting": "[19]", "result": 9, "unit": "mm"}, {"measurement": "zone of inhibition at 200 µg/disc", "setting": "[20]", "result": 8, "unit": "mm"}, {"measurement": "zone of inhibition at 200 µg/disc", "setting": "[21]", "result": 0, "unit": "mm"}, {"measurement": "zone of inhibition at 200 µg/disc", "setting": "[22]", "result": 8, "unit": "mm"}, {"measurement": "zone of inhibition at 200 µg/disc", "setting": "[23]", "result": 0, "unit": "mm"}, {"measurement": "Activity", "setting": "[1]", "result": 2.5, "unit": "µM"}, {"measurement": "Activity", "setting": "[24]", "result": 35, "unit": "%"}, {"measurement": "zone of inhibition at 200 µg/disc", "setting": "[25]", "result": 8, "unit": "mm"}]}
